Laboratory results taken from article PMC3084839, “Origin of Secretin Receptor Precedes the Advent of Tetrapoda: Evidence on the Separated Origins of Secretin and Orexin” (PLoS ONE, 2011).
Ends that are not written are not given here.

T1: lfSCTR (P. dolloi secretin receptor) (Protopterus dolloi, UniProt F8RUA8)
T1 sequence (F8RUA8 1-463): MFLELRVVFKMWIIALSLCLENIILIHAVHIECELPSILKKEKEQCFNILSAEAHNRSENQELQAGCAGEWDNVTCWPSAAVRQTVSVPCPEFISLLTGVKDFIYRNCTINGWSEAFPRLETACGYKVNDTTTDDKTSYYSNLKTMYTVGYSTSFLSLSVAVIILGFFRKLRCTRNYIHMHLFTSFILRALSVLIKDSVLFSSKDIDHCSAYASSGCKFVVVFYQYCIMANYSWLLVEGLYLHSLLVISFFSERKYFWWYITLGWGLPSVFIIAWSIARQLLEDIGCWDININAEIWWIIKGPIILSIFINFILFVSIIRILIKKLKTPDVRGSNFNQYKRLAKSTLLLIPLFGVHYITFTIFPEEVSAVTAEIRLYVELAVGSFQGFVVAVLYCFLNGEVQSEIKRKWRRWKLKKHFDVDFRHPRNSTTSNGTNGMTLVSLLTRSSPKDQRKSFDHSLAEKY

T2: xOX2R (Xenopus orexin type-2 receptor) (Xenopus laevis, UniProt F8RUB9)
T2 sequence (F8RUB9 1-440): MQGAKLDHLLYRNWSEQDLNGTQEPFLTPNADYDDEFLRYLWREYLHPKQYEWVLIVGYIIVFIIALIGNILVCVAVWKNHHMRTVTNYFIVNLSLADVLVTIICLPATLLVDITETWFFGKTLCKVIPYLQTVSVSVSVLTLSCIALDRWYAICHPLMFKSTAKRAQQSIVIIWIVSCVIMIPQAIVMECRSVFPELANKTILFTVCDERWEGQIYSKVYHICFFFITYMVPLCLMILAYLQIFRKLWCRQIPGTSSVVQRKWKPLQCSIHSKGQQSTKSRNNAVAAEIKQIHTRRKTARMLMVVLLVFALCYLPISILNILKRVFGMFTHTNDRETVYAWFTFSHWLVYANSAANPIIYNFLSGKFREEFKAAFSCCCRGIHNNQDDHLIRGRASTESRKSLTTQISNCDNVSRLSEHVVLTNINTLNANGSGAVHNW

B1: xSCT: 28-amino acid X. laevis secretin peptide cloned in this study, synthesized by one of the authors (protein)
chain: SSLPARSKRHVDGRFTSEFSRARGSAAIRKIINSALAGKRDIEENYQIDVPDVDNQREILKELAYNSLPELRSEEKQLTEQKAAEDLLCSAILNMLYRAPYQPLPAQSAQDYQGKNSSVEEVKHI

Assays:
[1] = test system: R. rugulosa pancreatic ductal cells; test: cAMP production in primary culture of R. rugulosa pancreatic ductal cells; format: cell-based, Rana rugulosa; conditions: positive control
Procedure: Adult male R. rugulosa was sacrificed by cervical decapitation. The freshly excised pancreas was removed and washed in Ringer solution (in mM, 85 NaCl, 4 KCl, 17.5 NaHCO3, 0.8 KH2PO4, 2 glucose, 1.5 CaCl2 and 0.8 MgCl2, pH 7.6). The excised pancreas was then minced into approximately 1 mm^3 pieces and digested at room temperature for 1 hr in the dissociation medium (Ringer solution supplemented with 0.2 mg/ml soy beans trypsin inhibitor (Sigma), 2 mg/ml BSA (Roche), 400 U/ml hyaluronidase (Sigma) and 50 U/ml collagenase (Sigma)). The tissue suspension was then washed with Ringer solution and small clusters of dissociated cells were filtered with the use of a 100-µm cell strainer (BD Falcon, US). Filtrate containing the undigested tissue, including the pancreatic ducts, was maintained in culture medium (80% Leibovitz's L-15 medium (Invitrogen) supplemented with 10% FBS and 100 U/ml Penicillin/[…] Streptomycin) in a humidified incubator at 24°C. […] The isolated pancreatic ductal cells were then used for cAMP stimulation in the presence of xSCT peptides and forskolin.

[2] = target: T1, lfSCTR (P. dolloi secretin receptor); test: Intracellular calcium mobilization in lfSCTR-transfected CHO cells; format: cell-based; conditions: lfSCTR-transfected CHO cells preloaded with Fluo-3; confocal imaging; at least 10 independent experiments; read-out: [Ca2+]i EC50, lfSCTR
Procedure: (§1) For confocal calcium imaging, transiently transfected cells were plated at a density of 3000 cells/well in 24-well plates (Sigma-Aldrich, St. Louis, MO). After overnight incubation, cells were pre-loaded with 5 µM Fluo-3 acetoxymethyl ester (AM) (Sigma) for 45 min at 37°C in Tyrode solution consisting of (mM): 140 NaCl, 5 KCl, 1 MgCl2, 1 CaCl2, 10 glucose and 10 HEPES at pH 7.4. Calcium transient of single receptor-transfected CHO cell was recorded with a confocal imaging system (Olympus Fluoview System version 4.2 FV300 TIEMPO) mounted on an upright Olympus microscope (IX71). Peptides at concentrations ranging from 10^−5 to 10^−12 M were added at designated time point and calcium level was traced in a real-time manner using the Fluoview software (Olympus). […] For both assays, ionomycin (10 µM) was added at the end of each experiment to test the vitality of the cells.
(§2) Differences were considered significant when P<0.05.

[3] = target: T1, lfSCTR (P. dolloi secretin receptor); test: Intracellular cAMP production in lfSCTR-transfected CHO cells; format: cell-based; conditions: for [cAMP]i stimulation of lfSCTR at 100 nM: 100 nM peptide, lfSCTR-transfected CHO-K1 cells, P<0.001; for EC50: CHO cells transiently transfected with lfSCTR, graded peptide concentrations, LANCE cAMP assay, mean ± SEM, n = 4, read-out: [cAMP]i EC50, lfSCTR
Description: as §2

[4] = target: T2, xOX2R (Xenopus orexin type-2 receptor); test: Intracellular calcium mobilization in xOX2R-CHO cells; format: cell-based; conditions: data not shown
Procedure: as §1, §2

orexin receptor = conditions: rat anterior hypothalamus and orexin receptor-transfected cells; cited from earlier work
Description: (§3) Orexins A and B [17] or hypocretins 1 and 2 [18] are peptides isolated from the rat hypothalamus in 1998 by two independent research groups. Both peptides are derived from the same precursor protein and are produced by differential proteolytic cleavage. Because the C-terminal portions of both orexin peptides resemble the N-terminal of secretin, orexins were proposed to have originated from secretin or the related peptides in the secretin/glucagon superfamily, [19]. This hypothesis was then examined by studying the bindings of these peptides with their receptors in mammals and conf ...

human orexin receptors = conditions: cited from earlier work
Description: as §3

[5] = test system: human orexin type-2 receptor; conditions: human orexin type-2 receptor-transfected CHO cells; cited from earlier work
Description: as §3

[6] = lfSCTR-CHO cells, micro-molar concentrations (10^-5 and 10^-6 M)

Row | Molecule | EC50 [2] [nM] | [cAMP]i stimulation of lfSCTR at 100 nM [3] | EC50 [3] [nM] | further results
1 | C=C[C@@]1(C)CC(=O)[C@]2(O)[C@@]3(C)[C@@H](O)CCC(C)(C)[C@@H]3[C@H](O)[C@H](OC(C)=O)[C@@]2(C)O1 [Forskolin] | – | – | – | increase in cAMP level compared with the basal [1]: 20 fold
2 | CC[C@H](C)[C@H](NC(=O)CNC(=O)[C@H](CC(=O)O)NC(=O)[C@H](CO)NC(=O)[C@@H](N)Cc1c[nH]cn1)C(=O)N[C@@H](Cc1ccccc1)C(=O)N[C@H](C(=O)N[C@@H](CC(=O)O)C(=O)N[C@@H](CO)C(=O)N[C@@H](Cc1ccc(O)cc1)C(=O)N[C@@H](CO)C(=O)N[C@@H](CCCNC(=N)N)C(=O)N[C@@H](Cc1ccc(O)cc1)C(=O)N[C@@H](CCCNC(=N)N)C(=O)N[C@@H](CCCCN)C(=O)N[C@@H](CCC(N)=O)C(=O)N[C@@H](CCSC)C(=O)N[C@@H](C)C(=O)N[C@H](C(=O)N[C@@H](CCCCN)C(=O)N[C@@H](CCCCN)C(=O)N[C@@H](Cc1ccc(O)cc1)C(=O)N[C@@H](CC(C)C)C(=O)N[C@@H](C)C(=O)N[C@@H](C)C(=O)N[C@H](C(=O)N[C@@H](CC(C)C)C(N)=O)C(C)C)C(C)C)[C@@H](C)O [hPACAP27] | 25.6 | significantly stimulate | 410 | –
3 | CC(C)C[C@H](NC(=O)CNC(=O)[C@H](CCC(N)=O)NC(=O)[C@H](CC(C)C)NC(=O)[C@H](CC(C)C)NC(=O)[C@H](CCCNC(=N)N)NC(=O)[C@H](CCC(N)=O)NC(=O)[C@H](CC(C)C)NC(=O)[C@H](CCCNC(=N)N)NC(=O)[C@H](C)NC(=O)CNC(=O)[C@H](CCC(=O)O)NC(=O)[C@H](CCCNC(=N)N)NC(=O)[C@H](CC(C)C)NC(=O)[C@H](CCCNC(=N)N)NC(=O)[C@H](CO)NC(=O)[C@H](CC(C)C)NC(=O)[C@H](CCC(=O)O)NC(=O)[C@H](CO)NC(=O)[C@@H](NC(=O)[C@H](Cc1ccccc1)NC(=O)[C@@H](NC(=O)CNC(=O)[C@H](CC(=O)O)NC(=O)[C@H](CO)NC(=O)[C@@H](N)Cc1c[nH]cn1)[C@@H](C)O)[C@@H](C)O)C(=O)N[C@H](C(N)=O)C(C)C [hSCT] | 14.7 | significantly stimulate | 790 | efficacy of hSCT relative to hPACAP27 in triggering [cAMP]i [3, 6]: 5.0 fold; efficacy of hSCT relative to hVIP in triggering [cAMP]i [3, 6]: 3.6 fold
4 | CC[C@H](C)[C@H](NC(=O)[C@H](CO)NC(=O)[C@H](CC(N)=O)NC(=O)[C@H](CC(C)C)NC(=O)[C@H](Cc1ccc(O)cc1)NC(=O)[C@H](CCCCN)NC(=O)[C@H](CCCCN)NC(=O)[C@@H](NC(=O)[C@H](C)NC(=O)[C@H](CCSC)NC(=O)[C@H](CCC(N)=O)NC(=O)[C@H](CCCCN)NC(=O)[C@H](CCCNC(=N)N)NC(=O)[C@H](CC(C)C)NC(=O)[C@H](CCCNC(=N)N)NC(=O)[C@@H](NC(=O)[C@H](Cc1ccc(O)cc1)NC(=O)[C@H](CC(N)=O)NC(=O)[C@H](CC(=O)O)NC(=O)[C@@H](NC(=O)[C@H](Cc1ccccc1)NC(=O)[C@@H](NC(=O)[C@H](C)NC(=O)[C@H](CC(=O)O)NC(=O)[C@H](CO)NC(=O)[C@@H](N)Cc1c[nH]cn1)C(C)C)[C@@H](C)O)[C@@H](C)O)C(C)C)C(=O)N[C@@H](CC(C)C)C(=O)N[C@@H](CC(N)=O)C(N)=O [hVIP] | 10.3 | significantly stimulate | 160 | –
5 | Human orexin A: human orexin A peptide (QPLPDCCRQKTCSCRLYELLHGAGNHAAGILTL; ends and bridges not checked; cysteine pairing not given here; UniProt O43612 34-66, looked up) | – | – | – | [Ca2+]i response, xOX2R [4]: able to induce calcium elevations
6 | Human orexin B: human orexin B peptide | – | – | – | [Ca2+]i response, xOX2R [4]: able to induce calcium elevations
7 | Porcine SCT: porcine secretin, literature result (HSDGTFTSELSRLRDSARLQRLLQGLV; ends and bridges not checked; UniProt P63298 33-59, looked up) | – | – | – | displacement of [125I] orexin A binding (orexin receptor): found to displace
8 | SCT: secretin, species not stated, in cited human orexin receptor studies | – | – | – | agonistic or antagonistic effects (human orexin receptors): neither agonistic nor antagonistic effects; calcium elevation [5]: unable; displacement of [125I] orexin A [5]: unable to displace
9 | B1 | 273 | – | 1820 | –
